Measured values reported in US9006235B2, “Inhibitors of human immunodeficiency virus replication” (priority 2012, dated 2015).
Where two headings read alike, the source gives them in different places.

Tested on: recombinant NL-Rluc virus
Assay: Inhibition of HIV replication (NL-Rluc virus, luciferase readout in MT-2 cells)
Type: cell-based
Settings: Human immunodeficiency virus 1, MT2, 120 h

Work on `Cc1nc2cc(NC(=O)C(Oc3ccccc3)C(C)C)nn2c(-c2cc(F)c3c(c2C)CCCO3)c1[C@H](OC(C)(C)C)C(=O)O` (mixture of isomers) [Example 24, (2S)-2-tert-butoxy-2-(7-(8-fluoro-5-methylchroman-6-yl)-5-methyl-2-(3-methyl-2-phenoxybutanamido)pyrazolo[1,5-a]pyrimidin-6-yl)acetic acid] yielded an EC50 (read-out: Activity) of under 100 nM.
Work on `Cc1nc2cc(N)nn2c(-c2cc(F)c3c(c2C)CCCO3)c1[C@H](OC(C)(C)C)C(=O)O` [Example 1, (2S)-2-(2-amino-7-(8-fluoro-5-methylchroman-6-yl)-5-methylpyrazolo[1,5-a]pyrimidin-6-yl)-2-tert-butoxyacetic acid] yielded an EC50 of 2480 nM and an EC50 (read-out: Activity) of over 1000 nM.
`Cc1nc2cc(NC(=O)CCC3CCCC3)nn2c(-c2cc(F)c3c(c2C)CCCO3)c1[C@H](OC(C)(C)C)C(=O)O` [Example 2, (2S)-2-tert-butoxy-2-(2-(3-cyclopentylpropanamido)-7-(8-fluoro-5-methylchroman-6-yl)-5-methylpyrazolo[1,5-a]pyrimidin-6-yl)acetic acid] gave an EC50 (read-out: Activity) of under 100 nM.
For `Cc1nc2cc(NC(=O)Cc3ccc(F)cc3)nn2c(-c2cc(F)c3c(c2C)CCCO3)c1[C@H](OC(C)(C)C)C(=O)O` [Example 3, (2S)-2-tert-butoxy-2-(7-(8-fluoro-5-methylchroman-6-yl)-2-(2-(4-fluorophenyl)acetamido)-5-methylpyrazolo[1,5-a]pyrimidin-6-yl)acetic acid], the EC50 was 80 nM and the EC50 (read-out: Activity) was under 100 nM.
`Cc1nc2cc(NC(=O)Cc3ccccc3)nn2c(-c2cc(F)c3c(c2C)CCCO3)c1[C@H](OC(C)(C)C)C(=O)O` [Example 4, (2S)-2-tert-butoxy-2-(7-(8-fluoro-5-methylchroman-6-yl)-5-methyl-2-(2-phenylacetamido)pyrazolo[1,5-a]pyrimidin-6-yl)acetic acid] gave an EC50 of 120 nM and an EC50 (read-out: Activity) of 100 to 1000 nM.
With `Cc1nc2cc(NC(=O)c3cccc(F)c3)nn2c(-c2cc(F)c3c(c2C)CCCO3)c1[C@H](OC(C)(C)C)C(=O)O` [Example 5, (2S)-2-tert-butoxy-2-(7-(8-fluoro-5-methylchroman-6-yl)-2-(3-fluorobenzamido)-5-methylpyrazolo[1,5-a]pyrimidin-6-yl)acetic acid] the EC50 (read-out: Activity) was under 100 nM.
Compound `COc1cccc(C(=O)Nc2cc3nc(C)c([C@H](OC(C)(C)C)C(=O)O)c(-c4cc(F)c5c(c4C)CCCO5)n3n2)c1` [Example 6, (2S)-2-tert-butoxy-2-(7-(8-fluoro-5-methylchroman-6-yl)-2-(3-methoxybenzamido)-5-methylpyrazolo[1,5-a]pyrimidin-6-yl)acetic acid] has an EC50 (read-out: Activity) of under 100 nM.
Work on `Cc1nc2cc(NC(=O)c3cccc(OCc4ccccc4)c3)nn2c(-c2cc(F)c3c(c2C)CCCO3)c1[C@H](OC(C)(C)C)C(=O)O` [Example 7, (2S)-2-(2-(3-(benzyloxy)benzamido)-7-(8-fluoro-5-methylchroman-6-yl)-5-methylpyrazolo[1,5-a]pyrimidin-6-yl)-2-tert-butoxyacetic acid] yielded an EC50 (read-out: Activity) of under 100 nM.
For `Cc1nc2cc(NC(=O)c3cccc(C#N)c3)nn2c(-c2cc(F)c3c(c2C)CCCO3)c1[C@H](OC(C)(C)C)C(=O)O` [Example 8, (2S)-2-tert-butoxy-2-(2-(3-cyanobenzamido)-7-(8-fluoro-5-methylchroman-6-yl)-5-methylpyrazolo[1,5-a]pyrimidin-6-yl)acetic acid], the EC50 (read-out: Activity) was 100 to 1000 nM.
`Cc1nc2cc(NC(=O)COCc3ccccc3)nn2c(-c2cc(F)c3c(c2C)CCCO3)c1[C@H](OC(C)(C)C)C(=O)O` [Example 9, (2S)-2-(2-(2-(benzyloxy)acetamido)-7-(8-fluoro-5-methylchroman-6-yl)-5-methylpyrazolo[1,5-a]pyrimidin-6-yl)-2-tert-butoxyacetic acid] showed an EC50 (read-out: Activity) of under 100 nM.
Work on `Cc1ccc(C(=O)Nc2cc3nc(C)c([C@H](OC(C)(C)C)C(=O)O)c(-c4cc(F)c5c(c4C)CCCO5)n3n2)cc1C` [Example 10, (2S)-2-tert-butoxy-2-(2-(3,4-dimethylbenzamido)-7-(8-fluoro-5-methylchroman-6-yl)-5-methylpyrazolo[1,5-a]pyrimidin-6-yl)acetic acid] yielded an EC50 (read-out: Activity) of under 100 nM.
In the case of `Cc1nc2cc(NC(=O)c3cc(C(C)(C)C)nn3C)nn2c(-c2cc(F)c3c(c2C)CCCO3)c1[C@H](OC(C)(C)C)C(=O)O` [Example 11, (2S)-2-tert-butoxy-2-(2-(3-tert-butyl-1-methyl-1H-pyrazole-5-carboxamido)-7-(8-fluoro-5-methylchroman-6-yl)-5-methylpyrazolo[1,5-a]pyrimidin-6-yl)acetic acid], the EC50 (read-out: Activity) is reported as under 100 nM.
Work on `Cc1nc2cc(NC(=O)CCCc3ccccc3)nn2c(-c2cc(F)c3c(c2C)CCCO3)c1[C@H](OC(C)(C)C)C(=O)O` [Example 12, (2S)-2-tert-butoxy-2-(7-(8-fluoro-5-methylchroman-6-yl)-5-methyl-2-(4-phenylbutanamido)pyrazolo[1,5-a]pyrimidin-6-yl)acetic acid] yielded an EC50 of 50 nM and an EC50 (read-out: Activity) of under 100 nM.
`Cc1nc2cc(NC(=O)COC3C[C@@H](C)CC[C@@H]3C(C)C)nn2c(-c2cc(F)c3c(c2C)CCCO3)c1[C@H](OC(C)(C)C)C(=O)O` (stereo partly drawn) [Example 13, (2S)-2-tert-butoxy-2-(7-(8-fluoro-5-methylchroman-6-yl)-2-(2-((2R,5S)-2-isopropyl-5-methylcyclohexyloxy)acetamido)-5-methylpyrazolo[1,5-a]pyrimidin-6-yl)acetic acid] showed an EC50 (read-out: Activity) of under 100 nM.
`CCOc1cccc(C(=O)Nc2cc3nc(C)c([C@H](OC(C)(C)C)C(=O)O)c(-c4cc(F)c5c(c4C)CCCO5)n3n2)c1` [Example 14, (2S)-2-tert-butoxy-2-(2-(3-ethoxybenzamido)-7-(8-fluoro-5-methylchroman-6-yl)-5-methylpyrazolo[1,5-a]pyrimidin-6-yl)acetic acid] showed an EC50 (read-out: Activity) of under 100 nM.
Compound `COc1ccc(C(=O)Nc2cc3nc(C)c([C@H](OC(C)(C)C)C(=O)O)c(-c4cc(F)c5c(c4C)CCCO5)n3n2)cc1OC` [Example 15, (2S)-2-tert-butoxy-2-(2-(3,4-dimethoxybenzamido)-7-(8-fluoro-5-methylchroman-6-yl)-5-methylpyrazolo[1,5-a]pyrimidin-6-yl)acetic acid] has an EC50 of 260 nM and an EC50 (read-out: Activity) of 100 to 1000 nM.
`Cc1nc2cc(NC(=O)CCc3ccccc3)nn2c(-c2cc(F)c3c(c2C)CCCO3)c1[C@H](OC(C)(C)C)C(=O)O` [Example 16, (2S)-2-tert-butoxy-2-(7-(8-fluoro-5-methylchroman-6-yl)-5-methyl-2-(3-phenylpropanamido)pyrazolo[1,5-a]pyrimidin-6-yl)acetic acid] was tested, and the EC50 (read-out: Activity) was 100 to 1000 nM.
For `CCCCCC(=O)Nc1cc2nc(C)c([C@H](OC(C)(C)C)C(=O)O)c(-c3cc(F)c4c(c3C)CCCO4)n2n1` [Example 17, (2S)-2-tert-butoxy-2-(7-(8-fluoro-5-methylchroman-6-yl)-2-hexanamido-5-methylpyrazolo[1,5-a]pyrimidin-6-yl)acetic acid], the EC50 (read-out: Activity) was under 100 nM.
`Cc1nc2cc(NC(=O)c3ccc4c(c3)-c3ccccc3C4=O)nn2c(-c2cc(F)c3c(c2C)CCCO3)c1[C@H](OC(C)(C)C)C(=O)O` [Example 18, (2S)-2-tert-butoxy-2-(7-(8-fluoro-5-methylchroman-6-yl)-5-methyl-2-(9-oxo-9H-fluorene-3-carboxamido)pyrazolo[1,5-a]pyrimidin-6-yl)acetic acid] was tested, and the EC50 (read-out: Activity) was 100 to 1000 nM.
`CCOc1ccccc1C(=O)Nc1cc2nc(C)c([C@H](OC(C)(C)C)C(=O)O)c(-c3cc(F)c4c(c3C)CCCO4)n2n1` [Example 19, (2S)-2-tert-butoxy-2-(2-(2-ethoxybenzamido)-7-(8-fluoro-5-methylchroman-6-yl)-5-methylpyrazolo[1,5-a]pyrimidin-6-yl)acetic acid] gave an EC50 (read-out: Activity) of under 100 nM.
`Cc1nc2cc(NC(=O)CCCCCC(C)(C)C)nn2c(-c2cc(F)c3c(c2C)CCCO3)c1[C@H](OC(C)(C)C)C(=O)O` [Example 20, (2S)-2-tert-butoxy-2-(2-(7,7-dimethyloctanamido)-7-(8-fluoro-5-methylchroman-6-yl)-5-methylpyrazolo[1,5-a]pyrimidin-6-yl)acetic acid] gave an EC50 (read-out: Activity) of under 100 nM.
Compound `Cc1nc2cc(NC(=O)CC3CCCC3)nn2c(-c2cc(F)c3c(c2C)CCCO3)c1[C@H](OC(C)(C)C)C(=O)O` [Example 21, (2S)-2-tert-butoxy-2-(2-(2-cyclopentylacetamido)-7-(8-fluoro-5-methylchroman-6-yl)-5-methylpyrazolo[1,5-a]pyrimidin-6-yl)acetic acid] has an EC50 (read-out: Activity) of under 100 nM.
In the case of `Cc1nc2cc(NC(=O)c3ccc4c(c3)OC(F)(F)O4)nn2c(-c2cc(F)c3c(c2C)CCCO3)c1[C@H](OC(C)(C)C)C(=O)O` [Example 22, (2S)-2-tert-butoxy-2-(2-(2,2-difluorobenzo[d][1,3]-dioxole-5-carboxamido)-7-(8-fluoro-5-methylchroman-6-yl)-5-methylpyrazolo[1,5-a]pyrimidin-6-yl)acetic acid], the EC50 (read-out: Activity) is reported as 100 to 1000 nM.
In the case of `COc1ccc(CCC(=O)Nc2cc3nc(C)c([C@H](OC(C)(C)C)C(=O)O)c(-c4cc(F)c5c(c4C)CCCO5)n3n2)cc1` [Example 23, (2S)-2-tert-butoxy-2-(7-(8-fluoro-5-methylchroman-6-yl)-2-(3-(4-methoxyphenyl)propanamido)-5-methylpyrazolo[1,5-a]pyrimidin-6-yl)acetic acid], the EC50 is reported as 170 nM and the EC50 (read-out: Activity) is reported as 100 to 1000 nM.
For `Cc1nc2cc(NC(=O)CC3CCCCC3)nn2c(-c2cc(F)c3c(c2C)CCCO3)c1[C@H](OC(C)(C)C)C(=O)O` [Example 25, (2S)-2-tert-butoxy-2-(2-(2-cyclohexylacetamido)-7-(8-fluoro-5-methylchroman-6-yl)-5-methylpyrazolo[1,5-a]pyrimidin-6-yl)acetic acid], the EC50 (read-out: Activity) was under 100 nM.
`Cc1nc2cc(NC(=O)Cc3ccc(Cl)c(Cl)c3)nn2c(-c2cc(F)c3c(c2C)CCCO3)c1[C@H](OC(C)(C)C)C(=O)O` [Example 26, (2S)-2-tert-butoxy-2-(2-(2-(3,4-dichlorophenyl)acetamido)-7-(8-fluoro-5-methylchroman-6-yl)-5-methylpyrazolo[1,5-a]pyrimidin-6-yl)acetic acid] showed an EC50 (read-out: Activity) of under 100 nM.
Work on `Cc1nc2cc(NC(=O)CCCOc3ccccc3)nn2c(-c2cc(F)c3c(c2C)CCCO3)c1[C@H](OC(C)(C)C)C(=O)O` [Example 27, (2S)-2-tert-butoxy-2-(7-(8-fluoro-5-methylchroman-6-yl)-5-methyl-2-(4-phenoxybutanamido)pyrazolo[1,5-a]pyrimidin-6-yl)acetic acid] yielded an EC50 (read-out: Activity) of 100 to 1000 nM.
